Measured values published in patent US12414960B2, “Analogues of oleuropein and oleacein and uses thereof” (Attica Sciences Ltd., priority 2020, dated 2025).

Assays:
[1] = tested on: MDA-MB-231 triple negative breast cancer cells; assay: XTT cell growth assay, MDA-MB-231; format: cell-based, human; details: NS = not statistically significant; for inhibition at 50 µM: Homo sapiens, MDA-MB-231, 24 h, read-out: Effectiveness to suppress MDA-MB-231 cell growth (cell growth inhibition); for Effectiveness to suppress MDA-MB-231 cell growth (cell growth inhibition): 50 uM, 24 h
Text: (§1) The XTT assay is used to measure cellular metabolic activity as an indicator of cell viability, proliferation and cytotoxicity. This non-radioactive, colorimetric assay system was first described by Scudiero, et al. in 1988 (Paull, Kenneth D. et al., J Heterocycl Chem, 1988, 25: 911-914; Scudiero, Dominic A. et al., Cancer Res, 1988, 48: 4827-4833) and improved in subsequent years by several other investigators (Weislow, Owen S. et al., J Natl Cancer Inst, 1989, 81(8): 577-586; Roehm, N. W. et al., J Immunol Methods, 1991, 142: 257-265).
(§2) The XTT assay is based on the reduction of a yellow tetrazolium salt (sodium 3′-[1-(phenylaminocarbonyl)-3,4-tetrazolium]-bis (4-methoxy6-nitro) benzene sulfonic acid hydrate or XTT) to an orange formazan dye by metabolically active cells (FIG. 8). The formazan dye formed is soluble in aqueous solutions and is directly quantified using a scanning multiwell spectrophotometer (ELISA reader). An increase in number of living cells results in an increase in the overall activity of mitochondrial dehydrogenases in the sample. This increase directly correlates to the amount of orange formazan formed, as monitored by the absorbance. Reduced number of living cells leads to reduced metabolism of quaternary salt and therefore reduced absorption.
(§3) Cell viability was assessed using the XTT assay kit (Roche, Mannheim, Germany) as described previously (Kouka, Paraskevi et al., Oxid Med Cell Longev. 2019, Article ID 1870965). Briefly, cancer cells per well were cultured in a 96-well plate in Dulbecco's modified Eagle's medium (DMEM). Following a 24 h incubation, 5, 10 and 50 μM of the tested GS compound was diluted in a serum-free DMEM and administered for 24 h. Subsequently, 50 μL of the XTT reagent (50:1) was added to each well. After 4 h of incubation, the absorbance was monitored at 450 nm and also at 630 nm as a reference wavelength in a BioTek ELx800 microplate reader (BioTek Instruments Inc., Winooski, VT, USA). As a negative control, samples containing serum-free DMEM only were used.
MDA-MB-231 is a human epithelial breast cancer cell line that was established from a pleural effusion of a person with a metastatic mammary adenocarcinomal and is one of the most commonly used breast cancer cell lines in medical research laboratories.
(§4) The effects of exemplary compounds on cancer cell lines and one non-tumorigenic cell line (control) were investigated using a high throughput screening assay. More specifically, the effects of the GS compounds on cell growth was evaluated by the XTT assay for cell lines HepG2, HeLa, MCF7 ER+, MDA-MB-231, and MKN-45, and by the Cell Glo luminescence assay for cell lines MIA PaCa-2, HCT-116, MCF-10A, and PANC-1.

[2] = tested on: HeLa cervical cancer cells; assay: XTT cell growth assay, HeLa; format: cell-based, human; details: Homo sapiens, HeLa, 24 h, NS = not statistically significant, read-out: Effectiveness to suppress HeLa cell growth (cell growth inhibition)
Text: as §1, §2, §3
HeLa is a human immortal cell line used in scientific research. It is the oldest and most commonly used human cell line. The line was derived from cervical cancer cells taken on Feb. 8, 1951 from Henrietta Lacks, a patient who died of cancer on Oct. 4, 1951.
as §4

[3] = tested on: MIA PaCa-2 pancreatic cancer cells; assay: Cell Glo luminescence cell growth assay, MIA PaCa-2; format: cell-based, human; details: Homo sapiens, MIA PaCa-2, 24 h, NS = not statistically significant, read-out: Effectiveness to suppress MIA PaCa-2 cell growth (cell growth inhibition)
Text: (§5) The CellTiter-Glo® Luminescent Cell Viability Assay (Promega Corporation; Madison, WI) is a homogeneous method of determining the number of viable cells in culture based on quantitation of the ATP present, an indicator of metabolically active cells. The homogeneous assay procedure involves adding the single reagent (CellTiter-Glo® Reagent) directly to cells cultured in serum-supplemented medium. The homogeneous “add-mix-measure” format results in cell lysis and generation of a luminescent signal proportional to the amount of ATP present. The amount of ATP is directly proportional to the number of cells present in culture.
(§6) Cancer cells (3,000 cells/well) were harvested in a 96-well plate. Then, the cancer cells were treated with GS compounds and incubated for 24 hours. The MT Cell Viability Substrate, NanoLuc® Enzyme and cell culture medium was equilibrated to 37° C. The 2× RealTime-Glo™ reagent was prepared by diluting the MT Cell Viability Substrate and NanoLuc® Enzyme in 37° C. cell culture medium to a 2× concentration for each reagent. For example, 1 mL of 2× RealTime-Glo™ reagent was prepared by adding 2 μL of MT Cell Viability Substrate, 1,000×, and 2 μL of NanoLuc® Enzyme, 1,000×, to 996 μL of cell culture medium to form the 2× RealTime-Glo™ reagent. Then, an equal volume of 2× RealTime-Glo™ reagent was added to the cancer cells. The cells were kept for ˜20 minutes in the cell culture incubator and then luminescence was measured by using a plate-reading luminometer.
MIA PaCa-2 is a human pancreatic ductal adenocarcinoma cell line derived from the carcinoma of a person.
as §4

[4] = tested on: MCF-7 ER+ breast cancer cells; assay: XTT cell growth assay, MCF-7 ER+; format: cell-based, human; details: Homo sapiens, MCF7, 24 h, NS = not statistically significant, read-out: Effectiveness to suppress MCF7 cell growth (cell growth inhibition)
Text: as §1, §2, §3
MCF-7 ER+ is a human breast cancer cell line isolated in 1970 from a person. Prior to MCF-7, it was not possible for cancer researchers to obtain a mammary cell line that was capable of living longer than a few months.
as §4

[5] = tested on: HCT-116 colon cancer cells; assay: Cell Glo luminescence cell growth assay, HCT-116; format: cell-based, human; details: NS = not statistically significant; for Effectiveness to suppress HCT-116 cell growth (cell growth inhibition): 1 uM, 24 h; for inhibition at 1 µM: Homo sapiens, HCT-116, 24 h, read-out: Effectiveness to suppress HCT-116 cell growth (cell growth inhibition)
Text: as §5, §6
HCT-116 is a human colorectal cancer cell lines that has a mutation in RAS proto-oncogene.
as §4

[6] = tested on: MKN-45 gastric cancer cells; assay: XTT cell growth assay, MKN-45; format: cell-based, human; details: Homo sapiens, MKN-45, 24 h, NS = not statistically significant, read-out: Effectiveness to suppress MKN-45 cell growth (cell growth inhibition)
Text: as §1, §2, §3
MKN-45 is a human gastric adenocarcinoma, established from the poorly differentiated adenocarcinoma of the stomach (medullary type) of a person.
as §4

[7] = Deoxyribose degradation assay (hydroxyl radical scavenging); format: biochemical; details: NS = not statistically significant
Description: The hydroxyl radical (OH.) is an extremely reactive in biological systems and has been implicated as highly damaging species in free radical pathology, capable of damaging biomolecules of the living cells. These radical combines with nucleotides in DNA and cause strand breakage leading to carcinogenesis, mutagenesis and cytotoxicity. Hydroxyl radical (OH.) scavenging capacity of an extract is directly related to its antioxidant activity.
The effect of extracts on hydroxyl radicals was assayed by using the deoxyribose method. 2-Deoxyribose is degraded on exposure to hydroxyl radicals generated by Fenton's reaction. The ability to neutralize the OH. is estimated as the rate of inhibition of the oxidation of 2-deoxyribose by the OH. (FIG. 5).
The measurement of the hydroxyl radical scavenging activity was evaluated for each of the GS compound by evaluating the pink chromogen absorption at 532 nm by spectrophotometry as described previously (Perjesi, Pal et al., Open Med Chem J., 2011, 5: 61-67

Work on C/C=C1/[C@H](OC2OC(CO)C(O)C(O)C2O)OC=C(C(=O)O)[C@H]1CC(=O)O (stereo in doubt) [GS2, (2S,4S,E)-4-(carboxymethyl)-3-Ethylidene-2-{[(2R,3S,4R,5R,6S)-3,4,5-trihydroxy-6-(hydroxymethyl)tetrahydro-2H-pyran-2-yl]oxy}-3,4-dihydro-2H-pyran-5-carboxylic acid] yielded an inhibition at 50 µM [1] of 41.8% and an inhibition at 50 µM [2] of 24.4%.
Work on C/C=C1/[C@H](OC2OC(CO)C(O)C(O)C2O)OC=C(C(=O)O)[C@H]1CC(=O)OCC12CC3CC(CC(C3)C1)C2 (stereo in doubt) [GS3, (2S,4S,E)-4-(2-(adamantan-1-ylmethoxy)-2-oxoethyl)-3-ethylidene-2-{[(2R,3S,4R,5R,6S)-3,4,5-trihydroxy-6-(hydroxymethyl)tetrahydro-2H-pyran-2-yl]oxy}-3,4-dihydro-2H-pyran-5-carboxylic acid] yielded an inhibition at 50 µM [1] of 64.7%.
Compound C/C=C1/[C@H](OC2OC(CO)C(O)C(O)C2O)OC=C(C(=O)O)[C@H]1CC(=O)OCCC1CCCCC1 (stereo in doubt) [GS5, (2S,4S,E)-4-(2-(2-cyclohexylethoxy)-2-oxoethyl)-3-ethylidene-2-{[(2R,3S,4R,5R,6S)-3,4,5-trihydroxy-6-(hydroxymethyl)tetrahydro-2H-pyran-2-yl]oxy}-3,4-dihydro-2H-pyran-5-carboxylic acid] has an inhibition at 50 µM [1] of 33.6%.
With C/C=C1/[C@H](OC2OC(CO)C(O)C(O)C2O)OC=C(C(=O)O)[C@H]1CC(=O)OCCc1ccc(O)cc1 (stereo in doubt) [GS7, (2S,4S,E)-3-ethylidene-4-(2-(4-hydroxyphenethoxy)-2-oxoethyl)-2{[(2R,3 S,4R,5R,6S)-3,4,5-trihydroxy-6-(hydroxymethyl)tetrahydro-2H-pyran-2-yl]oxy}-3,4dihydro-2H-pyran-5-carboxylic acid] the inhibition at 50 µM [1] was 32.7%.
C/C=C1/[C@H](OC2OC(CO)C(O)C(O)C2O)OC=C(C(=O)O)[C@H]1CC(=O)OCc1cc2ccccc2[nH]1 (stereo in doubt) [GS8, (2S,4S,E)-4-(2-((1H-indol-2-yl)methoxy)-2-oxoethyl)-3-ethylidene-2-{[(2R,3S,4R,5R,6S)-3,4,5-trihydroxy-6-(hydroxymethyl)tetrahydro-2H-pyran-2-yl]oxy}-3,4-dihydro-2H-pyran-5-carboxylic acid] showed an inhibition at 50 µM [1] of 22.5% and an inhibition at 50 µM [2] of 38.2%.
For C/C=C1/[C@H](OC2OC(CO)C(O)C(O)C2O)OC=C(C(=O)O)[C@H]1CC(=O)OCCCSC (stereo in doubt) [GS9, (2S,4S,E)-3-ethylidene-4-(2-(3-(methylthio)propoxy)-2-oxoethyl)-2-{[(2R,3S,4R,5R,6S)-3,4,5-trihydroxy-6-(hydroxymethyl)tetrahydro-2H-pyran-2-yl]oxy}-3,4-dihydro-2H-pyran-5-carboxylic acid], the “Effectiveness to suppress MDA-MB-231 cell growth (cell growth inhibition)” value [1] was “highest suppressive activity”, the inhibition at 50 µM [1] was 71.2% and the inhibition at 50 µM [3] was 55%. For the same compound, the inhibition at 50 µM [4] was 11.6%, the inhibition at 50 µM [2] was 20% and the “Effectiveness to suppress HCT-116 cell growth (cell growth inhibition)” value [5] was “suppressive activity”. The inhibition at 1 µM [5] was 41.7%.
C/C=C1/[C@H](OC2OC(CO)C(O)C(O)C2O)OC=C(C(=O)O)[C@H]1CC(=O)OCCOc1ccccc1 (stereo in doubt) [GS10, (2S,4S,E)-3-ethylidene-4-(2-oxo-2-(2-phenoxyethoxy)ethyl)-2-{[(2R,3S,4R,5R,6S)-3,4,5-trihydroxy-6-(hydroxymethyl)tetrahydro-2H-pyran-2-yl]oxy}-3,4-dihydro-2H-pyran-5-carboxylic acid] gave an inhibition at 50 µM [1] of 14%, an inhibition at 50 µM [3] of 22% and an inhibition at 50 µM [4] of 58.7%. For the same compound, the inhibition at 50 µM [6] was 31.9%, the inhibition at 50 µM [2] was 33.5% and the “Effectiveness to suppress HCT-116 cell growth (cell growth inhibition)” value [5] was “suppressive activity”. The inhibition at 1 µM [5] was 25.7%.
For C/C=C1/[C@H](OC2OC(CO)C(O)C(O)C2O)OC=C(C(=O)O)[C@H]1CC(=O)SCCc1ccccc1 (stereo in doubt) [GS11, (2S,4S,E)-3-ethylidene-4-(2-oxo-2-(phenethylthio)ethyl)-2-{[(2R,3S,4R,5R,6S)-3,4,5-trihydroxy-6-(hydroxymethyl)tetrahydro-2H-pyran-2-yl]oxy}-3,4-dihydro-2H-pyran-5-carboxylic acid], the “Effectiveness to suppress MDA-MB-231 cell growth (cell growth inhibition)” value [1] was “highest suppressive activity”, the inhibition at 50 µM [1] was 74.3% and the inhibition at 50 µM [3] was 50%. For the same compound, the inhibition at 50 µM [4] was 57.8%, the inhibition at 50 µM [2] was 14.4% and the “Effectiveness to suppress HCT-116 cell growth (cell growth inhibition)” value [5] was “suppressive activity”. For the same compound, the inhibition at 1 µM [5] was 32.9%.
For C/C=C(/C=O)[C@@H](CC=O)CC(=O)OCC12CC3CC(CC(C3)C1)C2 [GS23, (3S,4E)-4-formyl-3-(2-oxoethyl)hex-4-enoic acid adamantan-1-ylmethyl ester], the inhibition at 50 µM [1] was 42.7%, the inhibition at 50 µM [3] was 15% and the inhibition at 50 µM [4] was 64.7%. The “Deoxyribose Degradation Assay IC50” value [7] was 17.6 μg extract/mL and the inhibition at 50 µM [2] was 25.2%.
